Patent publication US9550815B2, “ABC terpenoid transporters and methods of using the same” (priority 2012, dated 2017)

Experiments:
O. piceae = experiment: Growth on YNB with quinic acid as sole carbon source; format: cell-based, Ophiostoma piceae; conditions: YNB media
Text: The cluster contains seven genes that include a quinate permease, two regulatory genes, one acting as an activator and the other as a repressor, and the four genes of the quinate/shikamate catabolic pathway (Asch et al. (1991) Mol Gen Genet 230(3):337-344, Giles et al. J Hered 82(1):1-7). The latter four catabolic genes (OPP_08735 to OPP_08738) reveal that O. piceae uses quinic acid in wood as a carbon source. While this gene cluster is reported in many fungi, this gene cluster was not identified in G. clavigera. […] Finally, a secreted lipase (OPP_00605) with a predicted triglycerides degradation activity was identified; its abundance relative to the control mannose was at least 50-fold.

G. clavigera WT [1] = experiment: Mycelium growth on MEA with monoterpenes; format: cell-based, Grosmannia clavigera; conditions: for growth delay of G. clavigera WT: 200 μL individual monoterpene or MT; for fungal growth rate, G. clavigera WT: 200 μL monoterpene, linear phase after delay
Method: (§1) Mono- and diterpene treatments were performed on glass petri dishes with the mono- and diterpenes applied to filter paper that was placed in the cover of the petri dish, which was sealed by Duraseal film. Specifically, plugs of actively growing G. clavigera fungal cultures on MEA were transferred into the center of glass petri dishes containing yeast nitrogen base-complete medium (YNB-CM; 0.17% YNB without amino acids, 1.5% granulated agar, 1% maltose, 0.1% PHP, and 0.3% asparagine). Two (2×4 cm) strips of filter paper were placed inside the lid of the plate and 200 μL of individual mono- or diterpenes or a mixture of monoterpenes (MT) were added onto the filter paper. The glass plates were sealed with DuraSeal™ film (Laboratory Sealing Film, VWR, cat #89031-573) and incubated at ˜22° C. in a sealed glass container for 7 days or until the mycelium reached the edge of the plates. Colony diameters were measured daily.
(§2) Colony morphologies and growth rates were examined for G. clavigera WT and mutant Δgcabc-g1 grown on malt extract agar (MEA) in the presence and absence of 200 μL of a mixture of monoterpenes as described in Example 3.A.1. above. Fungal growth rates were calculated (mm/day). Mycelium growth rates were also determined in the presence or absence of 200 μL of individual monoterpenes, including R-(+)-limonene, 3-carene, α-pinene and β-pinene, or 200 μL of a mixture of monoterpenes (R-(+)-limonene, 3-carene, α-pinene and β-pinene at a ratio of 5:3:1:1). Fungal spores were incubated for 3 days on MEA overlaid with cellophane (Amersham Biosciences, cat #80611781); then the young mycelia were treated with individual monoterpenes or a mixture of monoterpenes (200 μL) for 3-4 days before being transferred onto YNB. In YNB, monoterpenes were provided on filter paper as described in Example 3.A.1. and if necessary were re-supplied biweekly until the mycelia covered at least half of the media surface (3-4 weeks). Colony diameters were measured daily. Fungal growth rates were calculated (mm/day). Results were calculated as the average of 5 replicates and standard deviation was calculated.

mutant Δgcabc-g1 [2] = experiment: Mycelium growth on MEA with monoterpenes; format: cell-based, Grosmannia clavigera; conditions: for growth delay of mutant Δgcabc-g1: 200 μL individual monoterpene or MT; for growth rate of mutant Δgcabc-g1 lower than G. clavigera WT / fungal growth rate, mutant Δgcabc-g1: 200 μL monoterpene; for fungal growth rate, mutant Δgcabc-g1: linear phase after delay
Method: as §1
Agrobacterium GV3101, a laboratory stock, was used to transform G. clavigera. The whole gene open reading frame (ORF) encoding GcABC-G1 in G. clavigera was replaced with the selective gene marker hygromycin B (hph). Gene replacement (deletion) was verified by PCR amplification of adjacent regions, target region and selective marker gene, and copy numbers were determined by southern blot. The G. clavigera GcABC-G1 deletion mutant was designated mutant Δgcabc-g1.
as §2

[3] = test system: G. clavigera WT fungal spores; experiment: Asexual spore germination and survival with monoterpenes; format: cell-based, Grosmannia clavigera; conditions: MEA, 200 μL monoterpene; for spore germination partially reduced, G. clavigera: 6 days, relative to non-treated control; for spore germination inhibition, G. clavigera: counted after 6 days
Method: (§3) G. clavigera WT or mutant Δgcabc-g1 fungal spores were collected from 7-14 day old cultures grown on MEA (0.83% Oxoid™ malt extract agar and 0.75% technical agar, pH was adjusted to 5-6). Mycelium debris was removed by filtration (BD Falcon Cell Strainers; cat #08-771-1). Spore concentrations were determined using a haemocytometer and further diluted to ˜2 spores/μL. 100 μL of the spore suspension was spread on MEA in glass plates. For monoterpene treatment, two (2×4 cm) strips of filter paper were placed inside the lid of the plate and 200 μL of a mixture of monoterpenes were added onto the filter paper. For diterpene treatment, 100 μL of the spore suspension was spread on MEA containing 0.01% of a mixture of diterpenes (abietic acid, dehydroabietic acid and isopimaric acid). The glass plates were sealed with DuraSeal™ film (Laboratory Sealing Film, VWR, cat #89031-573) and incubated at ˜22° C. in a sealed glass container. The germinated spores were counted daily; at day 6 the monoterpenes were removed and the MEA plates were further incubated for 4 days to assess the survival of the spores.

[4] = test system: mutant Δgcabc-g1 fungal spores; experiment: as above; format: cell-based, Grosmannia clavigera
Method: as §3

Wildtype G. clavigera = experiment: Growth on YNB with monoterpenes as sole carbon source; format: cell-based, Grosmannia clavigera; conditions: 200 μL, 4 weeks
Method: (§4) Fungal spores were incubated for 3 days on 1% malt extract agar (MEA) overlaid with cellophane (Amersham Biosciences, cat #80611781), then the young mycelia were treated with a mixture of monoterpenes (200 μL) for 3-4 days before being transferred onto yeast nitrogen base (YNB) medium with a mixture of monoterpenes (MT) as sole carbon source (YNB+MT; […] YNB without amino acids, but with ammonium sulphate) in glass plates. The synthetic monoterpenoid blend contained R-(+)-limonene, 3-carene, α-pinene and β-pinene at a ratio of 5:3:1:1. If necessary monoterpenes were re-supplied biweekly until the mycelia covered at least half of the media surface (3-4 weeks). RNA-seq analysis was performed after 10 days. G. clavigera grown on YNB+1% mannose as the sole carbon source was used as a control.
(§5) Experiments were performed as described in Example 3.A.2. Growth of wildtype G. clavigera and the mutant Δgcabc-g1 was determined utilizing yeast nitrogen base (YNB)+either 10 μL or 200 μL of (+)-limonene, α-pinene or β-pinene. Growth was determined after 4 weeks. Monoterpenes were re-supplied every 2 weeks. Growth on YNB alone was used as a negative control. Growth on YNB+1% mannose was used as a positive control.

mutant Δgcabc-g1 [5] = experiment: as above; format: cell-based, Grosmannia clavigera
Method: as §4, §5

Sc-ABC = experiment: Yeast cell survival, dilution plate assay; format: cell-based, Saccharomyces cerevisiae; conditions: for Observation (B) Transformed Sc survival: GcABC-G1-dependent difference, Sc-ABC versus Sc-V; for relative inhibition of the yeast GcABC-G1 transformant by individual monoterpenoids: individual monoterpenoids compared; for Sc-ABC cells survived relative to Sc-V: one-hour treatment, 5 μL monoterpene, counted after 4 days
Method: The survival of Sc-V and Sc-ABC with individual monoterpenes was shown using a dilution plate assay. Overnight yeast cultures grown in SG broth were diluted to an OD600 of 0.2 and further grown to an OD600 of 0.4 at 28° C. The yeast cells were diluted to an appropriate density that was spread on SG media in Petri dishes glass (10^5 per petri dish). The yeast cells were treated for one hour with a specific monoterpene (5 μL) diluted in 245 μL ethanol; the solution was applied on five small filter papers placed inside the lid and the glass plates were sealed with DuraSeal film. After one-hour incubation, the chemical was removed and plates were further incubated for 4 days at 28° C. The numbers of surviving cells with and without monoterpene treatments were counted.

G. clavigera WT [6] = experiment: Growth on MEA with individual diterpenes; format: cell-based, Grosmannia clavigera; conditions: individual diterpene in MEA (0.1% per FIG. 8), pH ~8.0
Method: (§6) Growth rates were examined for G. clavigera WT and the mutant Δgcabc-g1 grown on MEA in the presence or absence of 200 μL of abietic acid, dehydroabietic acid and isopimaric acid as described in Example 3.A.2. Each diterpene was dissolved in a basic NaOH solution before being added into the MEA medium; the final pH of the medium was ˜8.0. Growth rates were calculated daily (mm/day). The results are shown in FIG. 8, which indicates growth rate in mm/24 hr for the average of three replicates. Error bar represents standard deviation.

mutant Δgcabc-g1 [7] = experiment: Growth on MEA with individual diterpenes; format: cell-based, Grosmannia clavigera; conditions: individual diterpene in MEA (0.1% per FIG. 8), pH ~8.0
Method: as §6

[8] = MEA, 200 μL monoterpene, 6 days

Structure (SMILES) | growth delay of G. clavigera WT (G. clavigera WT [1]) | growth delay of mutant Δgcabc-g1 (mutant Δgcabc-g1 [2]) | spore germination, mutant Δgcabc-g1 [4, 8] | growth with monoterpene as sole carbon source, wildtype G. clavigera (Wildtype G. clavigera) | Observation (B) Transformed Sc survival (Sc-ABC) | Sc-ABC cells survived relative to Sc-V (Sc-ABC) | Observation (A) Gc spore survival ([4]; {}) | other results
O=C(O)[C@]1(O)C[C@@H](O)[C@@H](O)[C@H](O)C1 [quinic acid] | – | – | – | – | – | – | – | growth of O. piceae with quinic acid as sole carbon source (O. piceae): grows
C=C(C)C1CC=C(C)CC1 (single isomer, unassigned; (+)) [(+)-limonene, R-(+)-limonene] | 1 days | 2 days | completely prevent spore germination | grew | +++ (Difference between with and without GcABC-G1 is more than 50%, P-value < 0.01) | approximately 7 times | – | growth rate of mutant Δgcabc-g1 lower than G. clavigera WT (mutant Δgcabc-g1 [2]): 52%; spore germination partially reduced, G. clavigera [3]: ~70%; Observation (A) Gc spore survival ([4]; GcABC-G1-dependent difference, Gc versus Δgcabc-g1): + (Difference between with and without GcABC-G1 is less than 50%, P-value < 0.01); fate of mutant Δgcabc-g1 on YNB with monoterpene (mutant Δgcabc-g1 [5]; 10 μL): survived, but did not grow; fate of mutant Δgcabc-g1 on YNB with monoterpene (mutant Δgcabc-g1 [5]; 200 μL): killed; relative inhibition of the yeast GcABC-G1 transformant by individual monoterpenoids (Sc-ABC): least inhibitory effect
CC1=CCC2C(C1)C2(C)C (centres unmarked) [3-carene] | 1 days | 2 days | completely prevent spore germination | – | +++ (Difference between with and without GcABC-G1 is more than 50%, P-value < 0.01) | approximately 30 times | +++ (Difference between with and without GcABC-G1 is more than 50%, P-value < 0.01) | fungal growth rate, G. clavigera WT (G. clavigera WT [1]): 5 to 6 mm/day; fungal growth rate, mutant Δgcabc-g1 (mutant Δgcabc-g1 [2]): 5 to 6 mm/day; spore germination inhibition, G. clavigera [3]: not inhibited
C=C1CC[C@H]2C[C@@H]1C2(C)C [(−)-β-pinene, (1S)-(−)-β-Pinene] | – | up to 3 days | completely prevent spore germination | not able to utilize | +++ (Difference between with and without GcABC-G1 is more than 50%, P-value < 0.01) | ~3 times | + (Difference between with and without GcABC-G1 is less than 50%, P-value < 0.01) | growth rate of mutant Δgcabc-g1 lower than G. clavigera WT (mutant Δgcabc-g1 [2]): 60%; spore germination partially reduced, G. clavigera [3]: ~70%; relative inhibition of the yeast GcABC-G1 transformant by individual monoterpenoids (Sc-ABC): strongest inhibition effect
CC1=CCC2CC1C2(C)C (racemic) [α-pinene] | not | 1 days | – | not able to utilize | – | not significantly different | + (Difference between with and without GcABC-G1 is less than 50%, P-value < 0.01) | fungal growth rate, G. clavigera WT (G. clavigera WT [1]): ~7 mm/day; fungal growth rate, mutant Δgcabc-g1 (mutant Δgcabc-g1 [2]): ~7 mm/day; spore germination inhibition, G. clavigera [3]: not inhibited; spore germination reduced, mutant Δgcabc-g1 ([4]; MEA, 200 μL monoterpene, 6 days, relative to non-treated control): 30%
CC(C)C1=CC2=CC[C@@H]3[C@](C)(CCC[C@@]3(C)C(=O)O)[C@H]2CC1 [abietic acid] | – | – | – | – | – | – | – | growth inhibition, G. clavigera WT (G. clavigera WT [6]): only slightly inhibited growth; growth inhibition, mutant Δgcabc-g1 (mutant Δgcabc-g1 [7]): only slightly inhibited growth
C=C[C@@]1(C)CC[C@H]2C(=CC[C@@H]3[C@]2(C)CCC[C@@]3(C)C(=O)O)C1 [isopimaric acid] | – | – | – | – | – | – | – | growth inhibition, G. clavigera WT (G. clavigera WT [6]): only slightly inhibited growth; growth inhibition, mutant Δgcabc-g1 (mutant Δgcabc-g1 [7]): only slightly inhibited growth
